Assays:
[1] = test system: aptananozyme III (amino-DBA with (TGTA) spacer (3) on Ce4+-ion-modified C-dots) (DNA, aptamer) TGTACGACGCCAGTTTGAAGGTTCGTTCGCAGGTGTGGAGTGACGTCG; experiment: ITC; details: 100 mM NaCl, 5 mM MgCl2; 5 mM MES pH 5.5; aptamer immobilised on Ce4+-C-dots; 20 µM aptananozyme, 600 µM dopamine titrant
[2] = test system: aptananozyme V (amino-DBA with (TGTA)3 spacer (5) on Ce4+-ion-modified C-dots) (DNA, aptamer) TGTATGTATGTACGACGCCAGTTTGAAGGTTCGTTCGCAGGTGTGGAGTGACGTCG; experiment: ITC; details: 100 mM NaCl, 5 mM MgCl2; 5 mM MES pH 5.5; aptamer immobilised on Ce4+-C-dots; 20 µM aptananozyme, 600 µM dopamine titrant
[3] = test system: DBA (free dopamine binding aptamer) (DNA, aptamer) CGACGCCAGTTTGAAGGTTCGTTCGCAGGTGTGGAGTGACGTCG; details: conditions not stated
[4] = test system: aptananozyme IV (amino-DBA with (TGTA)2 spacer (4) on Ce4+-ion-modified C-dots) (DNA, aptamer) TGTATGTACGACGCCAGTTTGAAGGTTCGTTCGCAGGTGTGGAGTGACGTCG; experiment: ITC; details: 100 mM NaCl, 5 mM MgCl2; 5 mM MES pH 5.5; aptamer immobilised on Ce4+-C-dots; 20 µM aptananozyme, 600 µM dopamine titrant

- Kd [1]: 0.95 ± 0.03 µM
- Kd [2]: 0.91 ± 0.10 µM
- Kd [3]: 0.72 ± 0.03 µM
- Kd [4]: 0.88 ± 0.04 µM
SMILES: NCCc1ccc(O)c(O)c1
